Test results published in patent US4217446A, “ωAmino-2-hydroxyalkyl derivatives of aminoglycoside antibiotics” (Pfizer Inc., priority 1974, dated 1980).
≈ marks a conversion by molar mass, not a printed value.

Experiments:
Klebsiella pneumoniae = assay: in vitro antibacterial activity, minimum inhibitory concentration (M.I.C.), agar plates; format: cell-based; conditions: 24 hours at 37° C., read-out: MIC Kleb. pneumoniae
Method: (§1) The in vitro evaluation of the compounds of the invention as antibacterial agents has been performed by determining the minimum inhibitory concentration (M.I.C.) of the test compound in a suitable medium at which growth of the particular micro-organism fails to occur. In practice, agar plates, each having incorporated therein the test compound at a particular concentration are inoculated with a standard number of cells of the test micro-organism and each plate is then incubated for 24 hours at 37° C. The plates are then observed for the presence or absence of the growth of bacteria and the appropriate M.I.C. value noted. Micro-organisms used in such tests having included strains of Escherichia coli, Klebsiella pneumoniae, Proteus mirabilis, Pseudomonas aeruginosa, Staphylococcus aureus and Streptococcus faecalis. Results of the testing of several of the compounds of this invention for their in vitro antibacterial activity, by the method described hereinbefore, are presented in Table I.

Staphylococcus aureus = assay: as above; format: cell-based; conditions: 24 hours at 37° C., read-out: MIC Staph. aureus
Method: as §1

Pseudomonas aeruginosa = assay: as above; format: cell-based; conditions: 24 hours at 37° C., read-out: MIC Pseud. aeruginosa
Method: as §1

Proteus mirabilis = assay: as above; format: cell-based; conditions: 24 hours at 37° C.
Method: as §1

Escherichia coli = assay: as above; format: cell-based; conditions: 24 hours at 37° C., read-out: MIC Esch. coli
Method: as §1

E. coli = assay: in vivo antibacterial activity against E. coli in mice, 50% protection against lethal effect; conditions: Escherichia coli, sc, subcutaneous, 50% protection over 72 hours, read-out: PD50
Method: Each compound is administered at a series of dosage levels to groups of mice and its activity is determined as the level at which it gives 50% protection, against the lethal effect of the Escherichia coli organism over a period of 72 hours.
The in vivo antibacterial activity of 1-N-[(S)-4-amino-2-hydroxybutyl]kanamycin A against E. coli in mice has been measured.

Row | SMILES | MIC (Klebsiella pneumoniae) [µg/mL] | MIC (Staphylococcus aureus) [µg/mL] | MIC (Pseudomonas aeruginosa) [µg/mL] | MIC (Proteus mirabilis) [µg/mL] | MIC (Escherichia coli) [µg/mL] | ED50 (E. coli) [mg/kg]
1 | NCC[C@H](O)CN[C@@H]1C[C@H](N)[C@@H](O[C@H]2O[C@H](CN)[C@@H](O)[C@H](O)[C@H]2N)[C@H](O[C@@H]2O[C@H](CO)[C@@H](O)[C@H]2O)[C@H]1O [1-N-[(S)-4-Amino-2-hydroxybutyl]ribostamycin] | 6.2 (≈ 11.4 µM) | 12.5 (≈ 23.1 µM) | 12.5 (≈ 23.1 µM) | 25 (≈ 46.2 µM) | 6.2 (≈ 11.4 µM) | 
2 | NCCC[C@H](O)CN[C@@H]1C[C@H](N)[C@@H](O[C@H]2O[C@H](CN)[C@@H](O)[C@H](O)[C@H]2O)[C@H](O)[C@H]1O[C@H]1O[C@H](CO)[C@@H](O)[C@H](N)[C@H]1O [1-N-[(S)-5-Amino-2-hydroxypentyl]kanamycin A] | 3.1 (≈ 5.29 µM) | 1.6 (≈ 2.73 µM) | 3.1 (≈ 5.29 µM) | 12.5 (≈ 21.3 µM) | 6.2 (≈ 10.6 µM) | 
3 | NCC(O)CN[C@@H]1C[C@H](N)[C@@H](O[C@H]2O[C@H](CN)[C@@H](O)[C@H](O)[C@H]2O)[C@H](O)[C@H]1O[C@H]1O[C@H](CO)[C@@H](O)[C@H](N)[C@H]1O (stereo partly drawn) [1-N-[3-amino-2-hydroxypropyl]kanamycin, 1-N-[3-Amino-2-hydroxpropyl]kanamycin A] | 6.2 (≈ 11.1 µM) | 3.1 (≈ 5.56 µM) | 3.1 (≈ 5.56 µM) | 12.5 (≈ 22.4 µM) | 12.5 (≈ 22.4 µM) | 
4 | NCC[C@H](O)CN[C@@H]1C[C@H](N)[C@@H](O[C@H]2O[C@H](CN)[C@@H](O)[C@H](O)[C@H]2N)[C@H](O)[C@H]1O[C@H]1O[C@H](CO)[C@@H](O)[C@H](N)[C@H]1O [1-N-[(S)-4-Amino-2-hydroxybutyl]kanamycin B] | 1.6 (≈ 2.8 µM) | 1.6 (≈ 2.8 µM) | 0.8 (≈ 1.4 µM) | 6.2 (≈ 10.9 µM) | 3.1 (≈ 5.43 µM) | 
5 | CNC[C@H]1O[C@H](O[C@H]2[C@H](O)[C@@H](O[C@H]3O[C@H](CO)[C@@H](O)[C@H](N)[C@H]3O)[C@H](NC[C@@H](O)CCN)C[C@@H]2N)[C@H](O)[C@@H](O)[C@@H]1O [6'-N-Methyl-1-N-[(S)-4-amino-2-hydroxybutyl]kanamycin A] | 3.1 (≈ 5.29 µM) | 3.1 (≈ 5.29 µM) | 3.1 (≈ 5.29 µM) | 6.2 (≈ 10.6 µM) | 6.2 (≈ 10.6 µM) | 
6 | NCC[C@H](O)CN[C@@H]1C[C@H](N)[C@@H](O[C@H]2O[C@H](CN)[C@@H](O)[C@H](O)[C@H]2O)[C@H](O)[C@H]1O[C@H]1O[C@H](CO)[C@@H](O)[C@H](N)[C@H]1O [1-N-[(S)-4-Amino-2-hydroxybutyl]kanamycin A] | 3.1 (≈ 5.42 µM) | 1.6 (≈ 2.8 µM) | 1.6 (≈ 2.8 µM) | 3.1 (≈ 5.42 µM) | 6.2 (≈ 10.8 µM) | 3.8
7 | NCCCC[C@H](O)CN[C@@H]1C[C@H](N)[C@@H](O[C@H]2O[C@H](CN)[C@@H](O)[C@H](O)[C@H]2O)[C@H](O)[C@H]1O[C@H]1O[C@H](CO)[C@@H](O)[C@H](N)[C@H]1O [1-N-[(S)-6-Amino-2-hydroxyhexyl]-kanamycin A] | 6.2 (≈ 10.3 µM) | 1.6 (≈ 2.67 µM) | 3.1 (≈ 5.17 µM) | 3.1 (≈ 5.17 µM) | 6.2 (≈ 10.3 µM) | 
